Source: US8487103B2 (Roche Palo Alto LLC, priority 2009, dated 2013)
Where a name gives a salt, the structure may show the parent alone.

Target: T1, HCV polymerase (NS5B570n-Con1) (Hepatitis C virus genotype 1b, UniProt Q9WMX2)
T1 construct: contains a 21 amino acid deletion at the C-terminus relative to the full-length HCV polymerase; 6-histidine (N); made in house; host or cells: E. coli BL21(DE) pLysS, plasmid pET 17b
Assay: HCV NS5B RNA Polymerase Activity
Assay type: biochemical, HCV Con1 strain
Method: The enzymatic activity of HCV polymerase (NS5B570n-Con1) was measured as the incorporation of radiolabeled nucleotide monophosphates into acid insoluble RNA products. Unincorporated radiolabeled substrate was removed by filtration and scintillant was added to the washed and dried filter plate containing radiolabeled RNA product. The amount of RNA product generated by NS5B570-Con1 at the end of the reaction was directly proportional to the amount of light emitted by the scintillant.
The N-terminal 6-histidine tagged HCV polymerase, derived from HCV Con1 strain, genotype 1b (NS5B570n-Con1) contains a 21 amino acid deletion at the C-terminus relative to the full-length HCV polymerase and was purified from E. coli strain BL21(DE) pLysS. The construct, containing the coding sequence of HCV NS5B Con1 (GenBank accession number AJ242654) was inserted into the plasmid construct pET 17b, downstream of a T7 promoter expression cassette and transformed into E. coli. A single colony was grown overnight as a starter culture and later used inoculate 10 L of LB media supplemented with 100 μg/mL ampicillin at 37° C. Protein expression was induced by the addition of 0.25 mM isopropyl-β-D-thiogalactopyranoside (IPTG) when optical density at […] of the culture was between 0.6 and 0.8 and cells were harvested after 16 to 18 h at 30° C. NS5B570n-Con1 was purified to homogeneity using a three-step protocol including subsequent column chromatography on Ni-NTA, SP-Sepharose HP and Superdex 75 resins.
Each 50 μL enzymatic reaction contained 20 nM RNA template derived from the complementary sequence of the Internal Ribosome Entry Site (cIRES), 20 nM NS5B570n-Con1 enzyme, 0.5 μCi of tritiated UTP (Perkin Elmer catalog no. TRK-412; specific activity: 30 to 60 Ci/mmol; stock solution concentration from 7.5×10^−5 M to 20.6×10^−6 M), 1 μM each ATP, CTP, and GTP, 40 mM Tris-HCl pH 8.0, 40 mM NaCl, 4 mM DTT (dithiothreitol), 4 mM MgCl2, and 5 μl of compound serial diluted in DMSO. Reaction mixtures were assembled in 96-well filter plates (cat #MADVN0B, Millipore Co.) and incubated for 2 h at 30° C. Reactions were stopped by addition of 10% final (v/v) trichloroacetic acid and incubated for 40 min at 4° C. Reactions were filtered, washed with 8 reaction volumes of 10% (v/v) trichloroacetic acetic acid, 4 reaction volumes of 70% (v/v) ethanol, air dried, and 25 μl of scintillant (Microscint 20, Perkin-Elmer) was added to each reaction well.
The amount of light emitted from the scintillant was converted to counts per minute (CPM) on a Topcount® plate reader (Perkin-Elmer, Energy Range: Low, Efficiency Mode Normal, Count Time: 1 min, Background Subtract: none, Cross talk reduction: Off).
Data was analyzed in Excel® (Microsoft) and ActivityBase® (Idbs®). The reaction in the absence of enzyme was used to determine the background signal, which was subtracted from the enzymatic reactions. Positive control reactions were performed in the absence of compound, from which the background corrected activity was set as 100% polymerase activity. All data was expressed as a percentage of the positive control. The compound concentration at which the enzyme-catalyzed rate of RNA synthesis was reduced by 50% (IC50) was calculated by fitting equation (i) to the data where“Y”
[formula] corresponds to the relative enzyme activity (in %), “% Min” is the residual relative activity at saturating compound concentration, “% Max” is the relative maximum enzymatic activity, “X” corresponds to the compound concentration, and “S” is the Hill coefficient (or slope).

Row | Structure (SMILES) | IC50 [nM]
1 | COc1c(C(C)(C)C)cc(-c2ccc(C)[nH]c2=O)c2ncc(N3CC[C@H](CNS(C)(=O)=O)C3)cc12 [Compound I-46] | 0.9
2 | COc1c(C(C)(C)C)cc(-n2ccc(=O)[nH]c2=O)c2ncc(N3CC[C@H](CNS(C)(=O)=O)C3)cc12 [Compound I-52, N-{(S)-1-[6-tert-Butyl-8-(2,4-dioxo-3,4-dihydro-2H-pyrimidin-1-yl)-5-methoxy-quinolin-3-yl]-pyrrolidin-3-ylmethyl}-methanesulfonamide] | 3.5
3 | COc1ccc(-c2cc(C3(C#N)CC3)c(OC)c3cc(-c4ccc(NS(C)(=O)=O)cc4)cnc23)c(=O)[nH]1 [Compound I-33] | 3.8
4 | COc1c(C(F)(F)F)cc(-c2ccc(C)[nH]c2=O)c2ncc(-c3ccc(NS(C)(=O)=O)cc3)cc12 [Compound I-49, N-{4-[5-Methoxy-8-(6-methyl-2-oxo-1,2-dihydro-pyridin-3-yl)-6-trifluoromethyl-quinolin-3-yl]-phenyl}-methanesulfonamidehydrobromide] | 0.7
5 | COc1c(C(C)(C)C)cc(-c2ccc[nH]c2=O)c2ncc(-c3ccc(NS(C)(=O)=O)cc3)cc12 [Compound I-14, N-{4-[6-tert-Butyl-5-methoxy-8-(2-oxo-1,2-dihydro-pyridin-3-yl)-quinolin-3-yl]-phenyl}-methanesulfonamide] | 1
6 | Br.[2H]C([2H])([2H])C(c1cc(-c2ccc(OC)[nH]c2=O)c2ncc(-c3ccc(NS(C)(=O)=O)cc3)cc2c1OC)(C([2H])([2H])[2H])C([2H])([2H])[2H] [Compound I-32, N-{4-[6-[1,1-di(methyl-d3)ethyl-2,2,2-d3]-5-methoxy-8-(6-methoxy-2-oxo-1,2-dihydro-pyridin-3-yl)-quinolin-3-yl]-phenyl}-methanesulfonamide] | 0.8
7 | COc1c(C(C)(C)C)cc(N2CCC(=O)NC2=O)c2ncc(N3CC[C@H](CNS(C)(=O)=O)C3)cc12 [Compound I-31] | 1.8
8 | Cc1nc2c(-c3ccc[nH]c3=O)cc(C(C)(C)C)cc2nc1-c1ccc(NS(C)(=O)=O)cc1 [Compound I-10, N-{4-[7-tert-Butyl-3-methyl-5-(2-oxo-1,2-dihydro-pyridin-3-yl)-quinoxalin-2-yl]-phenyl}-methanesulfonamide] | 21
9 | COc1c(C(C)(C)C)cc(N2CCCNC2=O)c2ncc(-c3ccc(NS(C)(=O)=O)cc3)cc12 [Compound I-27, N-{4-[6-tert-Butyl-5-methoxy-8-(2-oxo-tetrahydro-pyrimidin-1-yl)-quinolin-3-yl]-phenyl}-methanesulfonamide] | 0.7
10 | COc1ccc(-c2cc(C(C)(C)C)c(OC)c3cc(-c4ccc(NS(C)(=O)=O)cc4)cnc23)c(=O)[nH]1 [Compound I-34, N-{4-[6-tert-Butyl-5-methoxy-8-(6-methoxy-2-oxo-1,2-dihydro-pyridin-3-yl)-quinolin-3-yl]-phenyl}-methanesulfonamide] | 10
11 | COc1c(C2(C(F)F)CC2)cc(-c2ccc(C)[nH]c2=O)c2ncc(-c3ccc(NS(C)(=O)=O)cc3)cc12 [Compound I-37, N-{4-[6-(1-Difluoromethyl-cyclopropyl)-5-methoxy-8-(6-methyl-2-oxo-1,2-dihydro-pyridin-3-yl)-quinolin-3-yl]-phenyl}-methanesulfonamide] | 9.9
12 | COc1c(C(C)(C)C)cc(N2CCC(=O)NC2=O)c2ncc(-c3ccc(NS(C)(=O)=O)cc3)cc12 [Compound I-28, N-{4-[6-tert-Butyl-8-(2,4-dioxo-tetrahydro-pyrimidin-1-yl)-5-methoxy-quinolin-3-yl]-phenyl}-methanesulfonamide] | 2
13 | COc1ccc(-c2cc(C(C)(C)C)cc3nc(-c4ccc(NS(C)(=O)=O)cc4F)cnc23)c(=O)[nH]1 [Compound I-11] | 1
14 | COc1c(C(F)(F)F)cc(N2CCC(=O)NC2=O)c2ncc(-c3ccc(NS(C)(=O)=O)cc3)cc12 [Compound I-29, N-{4-[8-(2,4-Dioxo-tetrahydro-pyrimidin-1-yl)-5-methoxy-6-trifluoromethyl-quinolin-3-yl]-phenyl}-methanesulfonamide] | 1.8
15 | COc1c(C(C)(C)C)cc(-c2ccc(C)[nH]c2=O)c2ncc(CCCCNS(C)(=O)=O)cc12 [Compound I-44, N-{4-[6-tert-Butyl-5-methoxy-8-(6-methyl-2-oxo-1,2-dihydro-pyridin-3-yl)-quinolin-3-yl]-butyl}-methanesulfonamide] | 12.2
16 | COc1c(C(C)(C)C)cc(-c2ccc(C)[nH]c2=O)c2ncc(OCCCNS(C)(=O)=O)cc12 [Compound I-45, N-{3-[6-tert-Butyl-5-methoxy-8-(6-methyl-2-oxo-1,2-dihydro-pyridin-3-yl)-quinolin-3-yloxy]-propyl}-methanesulfonamide] | 11.8
17 | COc1ccc(-c2cc(C(C)(C)C)c(OC)c3cc(N4CC[C@H](CNS(C)(=O)=O)C4)ccc23)c(=O)[nH]1 [Compound I-36, N-{(S)-1-[7-tert-Butyl-8-methoxy-5-(6-methoxy-2-oxo-1,2-dihydro-pyridin-3-yl)-naphthalen-2-yl]-pyrrolidin-3-ylmethyl}-methanesulfonamide] | 8.4
18 | COc1ccc(-c2cc(C(F)(F)F)c(OC)c3cc(-c4ccc(NS(C)(=O)=O)cc4)cnc23)c(=O)[nH]1 [Compound I-50] | 0.6
19 | COc1c(CC(F)(F)F)cc(-c2ccc(C)[nH]c2=O)c2ncc(-c3ccc(NS(C)(=O)=O)cc3)cc12 [Compound I-53, N-{4-[5-Methoxy-8-(6-methyl-2-oxo-1,2-dihydro-pyridin-3-yl)-6-(2,2,2-trifluoro-ethyl)-quinolin-3-yl]-phenyl}-methanesulfonamide hydrobomide salt] | 9.6
20 | COc1c(C2(C(F)F)CC2)cc(-n2ccc(=O)[nH]c2=O)c2ncc(-c3ccc(NS(C)(=O)=O)cc3)cc12 [Compound I-39, N-{4-[6-(1-Difluoromethyl-cyclopropyl)-8-(2,4-dioxo-3,4-dihydro-2H-pyrimidin-1-yl)-5-methoxy-quinolin-3-yl]-phenyl}-methanesulfonamide] | 3.4
21 | COc1c(C(C)(C)C)cc(-c2ccc[nH]c2=O)c2ncccc12 [Compound I-17] | 38
22 | COc1c(C(C)(C)C)cc(-c2c[nH]c(=O)[nH]c2=O)c2ncc(-c3ccc(NS(C)(=O)=O)cc3)cc12 [Compound I-25, N-{4-[6-tert-Butyl-8-(2,4-dioxo-1,2,3,4-tetrahydro-pyrimidin-5-yl)-5-methoxy-quinolin-3-yl]-phenyl}-methanesulfonamide] | 0.4
23 | COc1c(C(C)(C)C)cc(-c2ccc[nH]c2=O)c2ncc(-c3ccc(N)nc3)cc12 [Compound I-43, 3-[3-(6-Amino-pyridin-3-yl)-6-tert-butyl-5-methoxy-quinolin-8-yl]-1H-pyridin-2-one] | 2.6
24 | COc1ccc(-c2cc(C(C)(C)C)cc3nc(-c4ccc(NS(C)(=O)=O)cc4Cl)cnc23)c(=O)[nH]1 [Compound I-9] | 1
25 | CC(C)(C)c1cc(-c2ccc[nH]c2=O)c2ncc(-c3ccc(NS(C)(=O)=O)cc3F)nc2c1 [Compound I-8] | 4
26 | COc1c(C(C)(C)C)cc(-c2ccc[nH]c2=O)c2ncc(N3CC(CNS(C)(=O)=O)C3)c(Cl)c12 [Compound I-22, N-{1-[6-tert-Butyl-4-chloro-5-methoxy-8-(2-oxo-1,2-dihydro-pyridin-3-yl)-quinolin-3-yl]-azetidin-3-ylmethyl}-methanesulfonamide] | 44
